Results reported in patent US11472845B2, “Antitumor peptide and use thereof” (TOAGOSEI CO., LTD., priority 2019, dated 2022).
Read-outs that look alike come from different tables or passages of the source. Ends that are not written are not given here.

Tests used:
[1] = tested on: human gastric cancer cell lines (FU97); type: cell-based; conditions: for Cell viability (%) of test cells: human, 48 h
Procedure: (§1) The antitumor activity of Sample 1 synthesized in the above Test Example 1 with respect to human-derived cultured tumor cells was evaluated. Currently commercially available human gastric cancer cell lines (FU97), human alveolar basal epithelial adenocarcinoma cell lines (A549), human breast cancer cell lines (MDA-MB-231), and human melanoma cell lines (A375) were prepared as test tumor cells. In addition, normal human mammary epithelial cell culture lines (MCF-12F) were prepared for comparison. A DMEM culture medium including 10 μg/mL of insulin, 50 unit/mL of penicillin, 50 μg/mL of streptomycin, and 10% fetal bovine serum (FBS) (product, commercially available from Wako Pure Chemical Industries, Ltd.) The above five types of cell lines were cultured in respective designated culture solutions. The cell lines were cultured so that the number of cells per well in a 96-hole (well) plate was about 5×10^3. Here, an amount of the culture solution per well was 100 μL. The 96-well plate was then placed in a CO2 incubator. Then, pre-incubation was performed under conditions of 37° C. and 5% CO2 for about 1 day (about 23 hours). Then, regarding the culture solution for the peptide addition area, culture solutions containing Sample 1 for each concentration were prepared so that the concentration of Sample 1 was 6.25 μM, 12.5 μM or 25 μM and supplied to wells (that is, wells after the pre-incubation) in which 90 μL of cells to be evaluated were cultured in each well. On the other hand, regarding the culture solution for the comparative test area, a culture solution to which no Sample 1 was added was prepared, and supplied to wells (that is, wells after the pre-incubation) in which 90 μL of cells to be evaluated were cultured in each well. The 96-well plate was then placed in a CO2 incubator, and incubated under conditions of 37° C. and 5% CO2 for 48 hours. […] Then, the absorbance at a wavelength of 450 nm (value corrected by the absorbance at a wavelength of 620 nm: A450-A620) was measured based on the reduction of the tetrazolium salt in the culture solution. Then, the cell viability was calculated according to a colorimetric method. In the test areas (test areas 1 to 3) in the peptide addition area, the cell viability of each of the above five types of cell lines was calculated as a relative value when a measured value (measurement absorbance) of the comparative test area in the same cell lines was set as 100%. That is, regarding each of the above five types of cell lines, the cell viability (%) was calculated by dividing the measurement absorbance of the test areas (test areas 1 to 3) in the peptide addition area by the measurement absorbance of the comparative test area in the same cell lines and multiplying by 100.

[2] = tested on: human breast cancer cell lines (MDA-MB-231); type: cell-based; conditions: for Cell viability (%) of test cells: human, 48 h
Procedure: as §1, with “0.1 mM” for “10 μg/mL”, “non-essential amino acids,” for “insulin,”, “FBS.” for “fetal bovine serum (FBS) (product, commercially available from Wako Pure Chemical Industries, Ltd.)”

With “MACLGFQRHKAQLNLATRTWPCTLLFFLLFIPVFCKKRTLRKTDRKKR-NH2 (cysteines drawn unpaired) [Sample 1]” the “Specific cell viability of test tumor cells” value ([1]; FU97, 12.5 μM Sample 1, (cell viability of test tumor cells)/(cell viability of MCF-12F cells)×100) was 23.0, the “Cell viability (%) of test cells” value ([1]; 6.25 μM) was 29.4% and the “Cell viability (%) of test cells” value ([1]; 12.5 μM) was 26.3%. The “Cell viability (%) of test cells” value ([1]; 25 μM) was 30%, the “Specific cell viability of test tumor cells” value ([2]; MDA-MB-231, 12.5 μM Sample 1, (cell viability of test tumor cells)/(cell viability of MCF-12F cells)×100) was 47.9 and the “Cell viability (%) of test cells” value ([2]; 6.25 μM) was 67.8%. The “Cell viability (%) of test cells” value ([2]; 12.5 μM) was 54.7% and the “Cell viability (%) of test cells” value ([2]; 25 μM) was 41.6%.
